Laboratory results: PMC8258795 (Computational and Structural Biotechnology Journal, 2021)

What was measured:
[1] = cited from earlier work; for BBB Permeable: prediction confirmed or corrected by literature
LRRK2 G2019S [2] = molecular target: T1, LRRK2 G2019S (Homo sapiens, UniProt Q5S007, G2019S); test: KINOMEscan competition binding assay (Eurofins DiscoverX); settings: competition with active-site directed ligand, duplicates
Description: (§1) The six hit compounds from the virtual screening were ordered from Selleckchem (Houston, Texas, USA). […] Stocks of all compounds were shipped to Reaction Biology Corporation (Malvern, Pennsylvania, USA) and Eurofins DiscoverX (Fremont, California, USA) for IC50 and Kd determination, respectively. The IC50 and Kd assays were performed as service by the companies.
The compounds were tested at 11 different concentrations in duplicates with 3-fold serial dilution starting at 100 μM. Compounds were dissolved and diluted in 100% DMSO. […] Shortly, streptavidin-coated magnetic beads were treated with the biotinylated competitive ligand for 30 min at room temperature. The liganded beads were blocked with excess biotin and washed with blocking buffer (SeaBlock (Pierce), 1% BSA, 0.05% Tween 20, 1 mM DTT) to remove unbound ligand and to reduce non-specific binding. […] The kinase concentration in the eluates was measured by qPCR.
(§2) A specific challenge to our drug repositioning approach was the use of a homolog structure as template instead of a LRRK2 structure. To validate the virtual screening results, all six top candidates were tested for in vitro inhibition of LRRK2 kinase activity.

LRRK2 G2019S [3] = molecular target: T1, LRRK2 G2019S; test: LRRK2 G2019S kinase activity inhibition, 33P-ATP P81 filter-binding (Reaction Biology); format: biochemical
Description: as §1
Compounds were dissolved and diluted in 100% DMSO. […] Compounds were delivered into the reaction mixture. After a 20 min incubation, ^33P-ATP was added to a final concentration of 10 μM to initiate the reaction. Reactions were carried out for 2 h at room temperature. The final enzyme and substrate concentrations were 20 nM and 20 μM, respectively. Kinase activity was detected by the P81 filter-binding method. The whole procedure is also described in [40].
as §2

[4] = peptide substrate, 10 μM ATP, duplicates

| SMILES | BBB Permeable [1] | Kd (LRRK2 G2019S [2]) [µM] | IC50 (LRRK2 G2019S [3]; [4]) [µM] | brain penetration ([1]; statement in discussion) | IC50 (LRRK2 G2019S [3]; values in text) [µM] |
| --- | --- | --- | --- | --- | --- |
| O=C1Nc2ccc(Cl)cc2[C@@](C#CC2CC2)(C(F)(F)F)O1 [Efavirenz] | supported by literature and Yes | > 100 | > 100 |  |  |
| C[C@H]1Oc2cc(cnc2N)-c2c(nn(C)c2C#N)CN(C)C(=O)c2ccc(F)cc21 [Lorlatinib] |  |  |  | brain penetrant |  |
| CCN(CC)CCNC(=O)c1c(C)[nH]c(/C=C2\C(=O)Nc3ccc(F)cc32)c1C [Sunitinib] | supported by literature and Yes |  |  |  |  |
| Fc1ccc([C@@H]2CCNC[C@H]2COc2ccc3c(c2)OCO3)cc1 [Paroxetine] | supported by literature and Yes | > 100 | > 100 |  |  |
| CCCc1nc(C)c2c(=O)[nH]c(-c3cc(S(=O)(=O)N4CCN(CC)CC4)ccc3OCC)nn12 [Vardenafil] |  | > 100 |  |  | 47 |
| C[C@@H](Oc1cc(-c2cnn(C3CCNCC3)c2)cnc1N)c1c(Cl)ccc(F)c1Cl [Crizotinib] | poor and No |  |  |  |  |
| O=C1Nc2ccc(I)cc2/C1=C/c1cc(Br)c(O)c(Br)c1 [GW 5074] |  | 0.79 | < 0.0051 |  |  |
